Assays:
diabetic rats = test: Fasting blood glucose assay in diabetic rats after single intraosseous statin injection; type: in vivo, rat; conditions: 1-14 weeks after single intraosseous injection (fluvastatin 8 mg, atorvastatin 4 mg, rosuvastatin 2 mg); tail blood, glucose meter
Procedure: 36 three-month-old male SD rats (250-300 g) rats were accommodated for one week, in accordance with standard procedures of diabetic rat model, intraperitoneal injection of streptozotocin (STZ, Sigma Company) 40 mg/kg, the next day administration of high fat diet (purchased from Institute of Zoology, recipe: 68.5% base stock, lard 20%, 10% sucrose, 1% cholesterol and 0.5% porcine bile salts).
Two months later, all the rats were abnormally elevated blood glucose (above 19.5 mmol/L), indicate a successful model (Zhouguang Xing animal models of human disease replication methodology Shanghai Science and Technology Literature Press, 2008: 167-168 SHI Xin animal models of human disease People's Health Press, 2008: 301-305). […] Bone wax pinhole puncture closure avoiding leakage and sutured wounds.
After the rats were fasted 6 h, take one drop of blood (about 50 ul) from the rat tail and placed in the blood sugar test paper (Roche), 2 seconds later, fasting blood glucose were determinated by Roche glucose meter (ACCU-CHEK Performa). […]

type 2 diabetes patients = conditions: oral atorvastatin 10 mg/d for 16 weeks added to conventional antidiabetic; vs control group; cited from earlier work
[1] = oral atorvastatin 10 mg/day, simvastatin 40 mg/day; cited from earlier work

## CC(C)c1c(C(=O)Nc2ccccc2)c(-c2ccccc2)c(-c2ccc(F)cc2)n1CC[C@@H](O)C[C@@H](O)CC(=O)O [atorvastatin]
Diabetic rats
  fasting blood glucose: significantly reduced
Type 2 diabetes patients
  blood glucose: much better than the control group
[1]
  effect on diabetes: no effect

## CC(C)c1nc(N(C)S(C)(=O)=O)nc(-c2ccc(F)cc2)c1/C=C/[C@@H](O)C[C@@H](O)CC(=O)O [rosuvastatin]
Diabetic rats
  fasting blood glucose: significantly reduced

— patent US10632115B2, “Use of a statin compound as local drug for treating obesity, diabetes, hypertension and hyperlipemia” (Peking University Third Hospital, priority 2015, dated 2020)
